Test results published in patent US20240264161A1, “BIOMARKERS AND USES THEREOF” (MetaCurUm Biotech AB, priority 2021, published 2024).
Each block holds one molecule with its values, some of them ahead of it.

Tests used:
TβRI = assay: Immunoblotting of AURKB phosphorylation after TβRI kinase inhibition; assay type: cell-based, human; details: PC-3U cells treated or not with SB505124 and TGFβ for 30 minutes
Description: (A, B and D) Immunofluorescence experiments showing co-localization of AURKB (green) and TβRI (V22, red) during mitosis in human prostate cancer (PC-3U) (A) and human neuroblastoma (KELLY) (B) cells, and of TβRI (V22, green) and β-tubulin (red) throughout the PC-3U mitosis (D). Scale bar, 20 μm. (C) Localization of survivin (green) and TβRI (V22, red) in PC-3U cells throughout the mitosis (E) Decreased co-localization of TβRI and AURKB after treatment of PC-3U cells on ice for 30 min. Scale bar, 20 μm. (F) Representative confocal images showing the localization of green fluorescent protein (GFP)-VPS4A (green) and β-tubulin (red) with or without knockdown of TβRI by siRNA, or treatment with the TβRI kinase inhibitor SB505124. Scale bar, 5 μm. (G) Multinucleated cells were counted after knockdown of TGFBR1. Data presented as mean±SEM, N=3 [Student's t-test, *P<0.05]. Scale bar, 20 μm. […] (J) PC-3U cells were treated or not with SB505124 and TGFβ for 30 minutes, after which cell lysates were analyzed by immunoblotting. […]
Cells were washed twice with ice-cold phosphate-buffered saline (PBS) and lysed in ice-cold lysis buffer [150 mM NaCl, 50 mM Tris, pH 8.0, 0.5% (v/v) deoxycholate, 1% (v/v) NP40, 10% (v/v) glycerol and protease inhibitors]. After centrifugation, the supernatants were collected, and protein concentrations determined using the BCA Protein Assay Kit (ThermoFisher Scientific). […]

PC-3U cells = assay: Confocal imaging of abscission (GFP-VPS4A and β-tubulin); assay type: cell-based, human
Description: (A, B and D) Immunofluorescence experiments showing co-localization of AURKB (green) and TβRI (V22, red) during mitosis in human prostate cancer (PC-3U) (A) and human neuroblastoma (KELLY) (B) cells, and of TβRI (V22, green) and β-tubulin (red) throughout the PC-3U mitosis (D). Scale bar, 20 μm. (C) Localization of survivin (green) and TβRI (V22, red) in PC-3U cells throughout the mitosis (E) Decreased co-localization of TβRI and AURKB after treatment of PC-3U cells on ice for 30 min. Scale bar, 20 μm. (F) Representative confocal images showing the localization of green fluorescent protein (GFP)-VPS4A (green) and β-tubulin (red) with or without knockdown of TβRI by siRNA, or treatment with the TβRI kinase inhibitor SB505124. Scale bar, 5 μm. (G) Multinucleated cells were counted after knockdown of TGFBR1. Data presented as mean±SEM, N=3 [Student's t-test, *P<0.05]. Scale bar, 20 μm. […] The gene sets are ordered by normalized enrichment score. Color indicates the adjusted p-value. (I) GSEA plots of the hallmark mitotic spindle (left) and G2/M checkpoint (right) gene sets show their strong association with TGFBR1-correlated genes. […] (J) PC-3U cells were treated or not with SB505124 and TGFβ for 30 minutes, after which cell lysates were analyzed by immunoblotting. […]

[1] = target: T1, Flag-tagged wild-type AURKB
T1 chain: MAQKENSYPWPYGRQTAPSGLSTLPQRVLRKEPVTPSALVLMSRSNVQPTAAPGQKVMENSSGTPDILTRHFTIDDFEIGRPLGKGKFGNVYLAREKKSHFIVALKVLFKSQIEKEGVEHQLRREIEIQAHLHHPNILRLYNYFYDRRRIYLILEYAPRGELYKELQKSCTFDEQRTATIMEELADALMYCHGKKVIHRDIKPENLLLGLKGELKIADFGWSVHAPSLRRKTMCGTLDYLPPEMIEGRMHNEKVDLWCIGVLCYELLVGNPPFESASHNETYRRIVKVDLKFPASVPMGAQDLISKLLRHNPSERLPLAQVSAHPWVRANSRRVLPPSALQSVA

[2] = target: T2, glutathione-S-transferase (GST)-TβRI, P36897
T2 chain: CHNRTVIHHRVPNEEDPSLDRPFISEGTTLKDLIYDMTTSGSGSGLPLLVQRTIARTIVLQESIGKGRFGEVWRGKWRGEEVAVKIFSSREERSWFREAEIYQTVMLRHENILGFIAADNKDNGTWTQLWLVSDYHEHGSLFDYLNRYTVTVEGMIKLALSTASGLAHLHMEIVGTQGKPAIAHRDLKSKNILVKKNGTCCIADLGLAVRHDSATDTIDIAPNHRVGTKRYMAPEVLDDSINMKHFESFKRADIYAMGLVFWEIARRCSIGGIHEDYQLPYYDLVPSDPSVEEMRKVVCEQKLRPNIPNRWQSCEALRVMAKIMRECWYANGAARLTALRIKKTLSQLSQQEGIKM

AURKB phosphorylation (TβRI): suppressed AURKB phosphorylation
Molecule: Cc1cccc(-c2[nH]c(C(C)(C)C)nc2-c2ccc3c(c2)OCO3)n1 [SB505124]
effect on abscission (PC-3U cells): did not affect the abscission

B1: TNF receptor associated factor 6 (TRAF6), endogenous in PC-3U cells (protein)
chain: MSLLNCENSCGSSQSESDCCVAMASSCSAVTKDDSVGGTASTGNLSSSFMEEIQGYDVEFDPPLESKYECPICLMALREAVQTPCGHRFCKACIIKSIRDAGHKCPVDNEILLENQLFPDNFAKREILSLMVKCPNEGCLHKMELRHLEDHQAHCEFALMDCPQCQRPFQKFHINIHILKDCPRRQVSCDNCAASMAFEDKEIHDQNCPLANVICEYCNTILIREQMPNHYDLDCPTAPIPCTFSTFGCHEKMQRNHLARHLQENTQSHMRMLAQAVHSLSVIPDSGYISEVRNFQETIHQLEGRLVRQDHQIRELTAKMETQSMYVSELKRTIRTLEDKVAEIEAQQCNGIYIWKIGNFGMHLKCQEEEKPVVIHSPGFYTGKPGYKLCMRLHLQLPTAQRCANYISLFVHTMQGEYDSHLPWPFQGTIRLTILDQSEAPVRQNHEEIMDAKPELLAFQRPTIPRNPKGFGYVTFMHLEALRQRTFIKDDTLLVRCEVSTRFDMGSLRREGFQPRSTDAGV
polyubiquitination of AURKB (Flag IP, HA-ubiquitin immunoblot, with or without TRAF6 siRNA) [1]: Knockdown of TRAF6 by siRNA in PC-3U cells suppressed polyubiquitination of AURKB

B2: His-AURKB (protein)
chain: MAQKENSYPWPYGRQTAPSGLSTLPQRVLRKEPVTPSALVLMSRSNVQPTAAPGQKVMENSSGTPDILTRHFTIDDFEIGRPLGKGKFGNVYLAREKKSHFIVALKVLFKSQIEKEGVEHQLRREIEIQAHLHHPNILRLYNYFYDRRRIYLILEYAPRGELYKELQKSCTFDEQRTATIMEELADALMYCHGKKVIHRDIKPENLLLGLKGELKIADFGWSVHAPSLRRKTMCGTLDYLPPEMIEGRMHNEKVDLWCIGVLCYELLVGNPPFESASHNETYRRIVKVDLKFPASVPMGAQDLISKLLRHNPSERLPLAQVSAHPWVRANSRRVLPPSALQSVA
in vitro kinase assay (phosphorylation of GST-TβRI) [2]: His-AURKB phosphorylated glutathione-S-transferase (GST)-TβRI in an in vitro kinase assay
